ChEMBL document CHEMBL3991601, “The target landscape of clinical kinase drugs” (Science, 2017)
Activity calls are given as the source filed them.

Legend:
[1] = target: Cyclin-dependent kinase 2 (Homo sapiens, UniProt P24941)
[2] = target: Uncharacterized aarF domain-containing protein kinase 5 (Homo sapiens, UniProt Q3MIX3)
[3] = target: Membrane-associated progesterone receptor component 1 (Homo sapiens, UniProt O00264)
[4] = target: T1, Eukaryotic translation initiation factor 5B (Homo sapiens, UniProt O60841)
T1 sequence (O60841 whole entry): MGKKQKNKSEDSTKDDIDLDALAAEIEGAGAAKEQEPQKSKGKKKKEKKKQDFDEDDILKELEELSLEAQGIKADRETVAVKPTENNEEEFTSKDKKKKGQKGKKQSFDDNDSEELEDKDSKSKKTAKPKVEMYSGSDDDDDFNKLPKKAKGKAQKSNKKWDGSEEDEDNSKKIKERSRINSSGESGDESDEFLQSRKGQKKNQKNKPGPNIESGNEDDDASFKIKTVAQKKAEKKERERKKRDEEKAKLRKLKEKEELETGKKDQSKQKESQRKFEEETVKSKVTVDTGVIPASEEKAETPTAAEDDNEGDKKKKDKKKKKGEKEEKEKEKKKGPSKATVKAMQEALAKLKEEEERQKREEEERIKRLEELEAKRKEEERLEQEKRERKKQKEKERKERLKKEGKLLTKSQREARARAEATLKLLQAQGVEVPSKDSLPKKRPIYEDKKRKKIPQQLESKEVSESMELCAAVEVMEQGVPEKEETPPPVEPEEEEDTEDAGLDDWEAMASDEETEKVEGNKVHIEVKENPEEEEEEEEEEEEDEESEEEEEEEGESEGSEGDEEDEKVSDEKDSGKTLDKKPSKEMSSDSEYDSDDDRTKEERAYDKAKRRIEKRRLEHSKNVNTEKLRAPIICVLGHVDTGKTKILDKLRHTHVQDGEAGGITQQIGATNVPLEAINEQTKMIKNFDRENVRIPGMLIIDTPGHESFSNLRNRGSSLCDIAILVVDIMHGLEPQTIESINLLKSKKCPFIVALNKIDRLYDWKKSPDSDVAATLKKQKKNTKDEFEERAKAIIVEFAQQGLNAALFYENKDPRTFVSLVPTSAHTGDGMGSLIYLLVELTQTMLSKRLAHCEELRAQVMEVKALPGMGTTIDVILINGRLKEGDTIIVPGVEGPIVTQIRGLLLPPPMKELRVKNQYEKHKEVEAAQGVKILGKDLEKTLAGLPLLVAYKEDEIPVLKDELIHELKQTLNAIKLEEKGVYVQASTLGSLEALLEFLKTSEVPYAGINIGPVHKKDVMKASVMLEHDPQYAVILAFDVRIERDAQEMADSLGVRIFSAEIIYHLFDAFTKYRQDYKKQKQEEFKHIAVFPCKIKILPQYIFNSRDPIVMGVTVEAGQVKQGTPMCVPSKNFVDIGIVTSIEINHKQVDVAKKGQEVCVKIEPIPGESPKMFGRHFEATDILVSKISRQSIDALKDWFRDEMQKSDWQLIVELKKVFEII

[5] = target: Choline-phosphate cytidylyltransferase A (Homo sapiens, UniProt P49585)
[6] = target: Ephrin type-A receptor 7 (Homo sapiens, UniProt Q15375)
[7] = target: Protein kinase C theta type (Homo sapiens, UniProt Q04759)
[8] = target: Cell division cycle 7-related protein kinase (Homo sapiens, UniProt O00311)
Chain of Cell division cycle 7-related protein kinase (O00311 whole entry): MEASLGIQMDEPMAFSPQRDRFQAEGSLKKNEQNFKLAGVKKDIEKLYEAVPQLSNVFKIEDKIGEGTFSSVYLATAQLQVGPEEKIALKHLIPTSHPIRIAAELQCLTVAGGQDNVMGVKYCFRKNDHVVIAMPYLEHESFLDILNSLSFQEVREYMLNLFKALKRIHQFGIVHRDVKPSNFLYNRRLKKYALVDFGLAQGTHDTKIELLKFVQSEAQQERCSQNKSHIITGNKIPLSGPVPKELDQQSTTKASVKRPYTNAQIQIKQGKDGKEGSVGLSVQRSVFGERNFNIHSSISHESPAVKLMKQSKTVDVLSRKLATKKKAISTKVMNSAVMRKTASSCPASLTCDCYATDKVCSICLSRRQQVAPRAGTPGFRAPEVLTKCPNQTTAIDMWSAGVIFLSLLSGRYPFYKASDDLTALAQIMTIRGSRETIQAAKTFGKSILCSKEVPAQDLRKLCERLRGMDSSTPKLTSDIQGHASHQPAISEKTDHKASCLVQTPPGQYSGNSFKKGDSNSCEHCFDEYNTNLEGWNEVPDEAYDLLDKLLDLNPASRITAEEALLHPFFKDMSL

[9] = target: Obg-like ATPase 1 (Homo sapiens, UniProt Q9NTK5)
Chain of Obg-like ATPase 1 (Q9NTK5 whole entry, looked up): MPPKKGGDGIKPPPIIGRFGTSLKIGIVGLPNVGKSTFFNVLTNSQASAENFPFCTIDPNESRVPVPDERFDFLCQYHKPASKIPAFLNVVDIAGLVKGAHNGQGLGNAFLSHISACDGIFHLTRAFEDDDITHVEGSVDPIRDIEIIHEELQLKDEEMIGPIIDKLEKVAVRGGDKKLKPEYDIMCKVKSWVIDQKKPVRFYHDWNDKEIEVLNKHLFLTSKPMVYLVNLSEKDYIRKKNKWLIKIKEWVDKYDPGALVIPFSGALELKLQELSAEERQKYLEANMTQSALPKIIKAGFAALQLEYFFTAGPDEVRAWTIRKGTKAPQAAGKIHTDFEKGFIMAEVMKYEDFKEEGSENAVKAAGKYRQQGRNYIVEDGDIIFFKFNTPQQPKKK

[10] = target: Dual specificity protein kinase CLK3 (Homo sapiens, UniProt P49761); type: subcellular, K-562, COLO 205, SK-N-BE(2) and MV-4-11, Cell lysate; details: read-out: Kd apparent
Chain of Dual specificity protein kinase CLK3 (P49761 whole entry): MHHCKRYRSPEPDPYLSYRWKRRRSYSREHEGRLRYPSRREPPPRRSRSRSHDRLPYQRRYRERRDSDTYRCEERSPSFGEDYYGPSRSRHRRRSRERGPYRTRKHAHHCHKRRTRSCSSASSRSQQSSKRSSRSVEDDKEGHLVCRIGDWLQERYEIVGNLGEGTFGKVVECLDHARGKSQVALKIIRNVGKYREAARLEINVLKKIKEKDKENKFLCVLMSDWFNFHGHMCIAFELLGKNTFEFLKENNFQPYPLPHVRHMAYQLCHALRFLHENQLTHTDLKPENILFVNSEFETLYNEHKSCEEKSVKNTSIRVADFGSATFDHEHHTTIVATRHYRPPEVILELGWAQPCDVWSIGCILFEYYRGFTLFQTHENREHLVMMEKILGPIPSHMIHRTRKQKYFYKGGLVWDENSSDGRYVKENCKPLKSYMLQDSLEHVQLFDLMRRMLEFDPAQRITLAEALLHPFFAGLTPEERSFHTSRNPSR

[11] = target: Dual specificity protein kinase CLK2 (Homo sapiens, UniProt P49760)
[12] = target: PAS domain-containing serine/threonine-protein kinase (Homo sapiens, UniProt Q96RG2)
[13] = target: T2, Dual specificity protein kinase TTK (Homo sapiens, UniProt P33981)
T2 sequence (P33981 whole entry): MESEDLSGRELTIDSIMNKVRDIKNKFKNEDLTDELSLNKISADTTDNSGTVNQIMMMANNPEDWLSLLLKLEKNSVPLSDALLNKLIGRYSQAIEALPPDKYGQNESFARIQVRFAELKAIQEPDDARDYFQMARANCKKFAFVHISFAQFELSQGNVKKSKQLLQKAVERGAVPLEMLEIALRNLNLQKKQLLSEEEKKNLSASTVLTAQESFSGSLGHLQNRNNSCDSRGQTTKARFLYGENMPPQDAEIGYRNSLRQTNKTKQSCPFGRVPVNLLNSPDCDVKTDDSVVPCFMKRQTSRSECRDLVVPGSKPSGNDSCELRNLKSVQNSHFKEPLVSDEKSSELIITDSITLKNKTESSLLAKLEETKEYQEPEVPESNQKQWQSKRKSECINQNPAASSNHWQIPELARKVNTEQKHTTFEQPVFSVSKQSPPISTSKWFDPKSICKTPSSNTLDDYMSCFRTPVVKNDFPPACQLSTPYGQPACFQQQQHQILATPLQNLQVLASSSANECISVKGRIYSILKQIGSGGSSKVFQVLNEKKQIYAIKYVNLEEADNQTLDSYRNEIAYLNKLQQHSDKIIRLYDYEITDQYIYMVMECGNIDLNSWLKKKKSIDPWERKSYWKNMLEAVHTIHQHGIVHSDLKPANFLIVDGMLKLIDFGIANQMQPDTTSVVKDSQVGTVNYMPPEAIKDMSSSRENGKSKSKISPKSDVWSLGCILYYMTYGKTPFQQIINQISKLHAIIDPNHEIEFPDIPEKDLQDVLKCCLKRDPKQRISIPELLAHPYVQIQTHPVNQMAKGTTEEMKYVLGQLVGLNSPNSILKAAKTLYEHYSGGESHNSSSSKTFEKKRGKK

[14] = target: Epidermal growth factor receptor (Homo sapiens, UniProt P00533)
[15] = target: Serine/threonine-protein kinase ATR (Homo sapiens, UniProt Q13535)
Chain of Serine/threonine-protein kinase ATR (Q13535 whole entry): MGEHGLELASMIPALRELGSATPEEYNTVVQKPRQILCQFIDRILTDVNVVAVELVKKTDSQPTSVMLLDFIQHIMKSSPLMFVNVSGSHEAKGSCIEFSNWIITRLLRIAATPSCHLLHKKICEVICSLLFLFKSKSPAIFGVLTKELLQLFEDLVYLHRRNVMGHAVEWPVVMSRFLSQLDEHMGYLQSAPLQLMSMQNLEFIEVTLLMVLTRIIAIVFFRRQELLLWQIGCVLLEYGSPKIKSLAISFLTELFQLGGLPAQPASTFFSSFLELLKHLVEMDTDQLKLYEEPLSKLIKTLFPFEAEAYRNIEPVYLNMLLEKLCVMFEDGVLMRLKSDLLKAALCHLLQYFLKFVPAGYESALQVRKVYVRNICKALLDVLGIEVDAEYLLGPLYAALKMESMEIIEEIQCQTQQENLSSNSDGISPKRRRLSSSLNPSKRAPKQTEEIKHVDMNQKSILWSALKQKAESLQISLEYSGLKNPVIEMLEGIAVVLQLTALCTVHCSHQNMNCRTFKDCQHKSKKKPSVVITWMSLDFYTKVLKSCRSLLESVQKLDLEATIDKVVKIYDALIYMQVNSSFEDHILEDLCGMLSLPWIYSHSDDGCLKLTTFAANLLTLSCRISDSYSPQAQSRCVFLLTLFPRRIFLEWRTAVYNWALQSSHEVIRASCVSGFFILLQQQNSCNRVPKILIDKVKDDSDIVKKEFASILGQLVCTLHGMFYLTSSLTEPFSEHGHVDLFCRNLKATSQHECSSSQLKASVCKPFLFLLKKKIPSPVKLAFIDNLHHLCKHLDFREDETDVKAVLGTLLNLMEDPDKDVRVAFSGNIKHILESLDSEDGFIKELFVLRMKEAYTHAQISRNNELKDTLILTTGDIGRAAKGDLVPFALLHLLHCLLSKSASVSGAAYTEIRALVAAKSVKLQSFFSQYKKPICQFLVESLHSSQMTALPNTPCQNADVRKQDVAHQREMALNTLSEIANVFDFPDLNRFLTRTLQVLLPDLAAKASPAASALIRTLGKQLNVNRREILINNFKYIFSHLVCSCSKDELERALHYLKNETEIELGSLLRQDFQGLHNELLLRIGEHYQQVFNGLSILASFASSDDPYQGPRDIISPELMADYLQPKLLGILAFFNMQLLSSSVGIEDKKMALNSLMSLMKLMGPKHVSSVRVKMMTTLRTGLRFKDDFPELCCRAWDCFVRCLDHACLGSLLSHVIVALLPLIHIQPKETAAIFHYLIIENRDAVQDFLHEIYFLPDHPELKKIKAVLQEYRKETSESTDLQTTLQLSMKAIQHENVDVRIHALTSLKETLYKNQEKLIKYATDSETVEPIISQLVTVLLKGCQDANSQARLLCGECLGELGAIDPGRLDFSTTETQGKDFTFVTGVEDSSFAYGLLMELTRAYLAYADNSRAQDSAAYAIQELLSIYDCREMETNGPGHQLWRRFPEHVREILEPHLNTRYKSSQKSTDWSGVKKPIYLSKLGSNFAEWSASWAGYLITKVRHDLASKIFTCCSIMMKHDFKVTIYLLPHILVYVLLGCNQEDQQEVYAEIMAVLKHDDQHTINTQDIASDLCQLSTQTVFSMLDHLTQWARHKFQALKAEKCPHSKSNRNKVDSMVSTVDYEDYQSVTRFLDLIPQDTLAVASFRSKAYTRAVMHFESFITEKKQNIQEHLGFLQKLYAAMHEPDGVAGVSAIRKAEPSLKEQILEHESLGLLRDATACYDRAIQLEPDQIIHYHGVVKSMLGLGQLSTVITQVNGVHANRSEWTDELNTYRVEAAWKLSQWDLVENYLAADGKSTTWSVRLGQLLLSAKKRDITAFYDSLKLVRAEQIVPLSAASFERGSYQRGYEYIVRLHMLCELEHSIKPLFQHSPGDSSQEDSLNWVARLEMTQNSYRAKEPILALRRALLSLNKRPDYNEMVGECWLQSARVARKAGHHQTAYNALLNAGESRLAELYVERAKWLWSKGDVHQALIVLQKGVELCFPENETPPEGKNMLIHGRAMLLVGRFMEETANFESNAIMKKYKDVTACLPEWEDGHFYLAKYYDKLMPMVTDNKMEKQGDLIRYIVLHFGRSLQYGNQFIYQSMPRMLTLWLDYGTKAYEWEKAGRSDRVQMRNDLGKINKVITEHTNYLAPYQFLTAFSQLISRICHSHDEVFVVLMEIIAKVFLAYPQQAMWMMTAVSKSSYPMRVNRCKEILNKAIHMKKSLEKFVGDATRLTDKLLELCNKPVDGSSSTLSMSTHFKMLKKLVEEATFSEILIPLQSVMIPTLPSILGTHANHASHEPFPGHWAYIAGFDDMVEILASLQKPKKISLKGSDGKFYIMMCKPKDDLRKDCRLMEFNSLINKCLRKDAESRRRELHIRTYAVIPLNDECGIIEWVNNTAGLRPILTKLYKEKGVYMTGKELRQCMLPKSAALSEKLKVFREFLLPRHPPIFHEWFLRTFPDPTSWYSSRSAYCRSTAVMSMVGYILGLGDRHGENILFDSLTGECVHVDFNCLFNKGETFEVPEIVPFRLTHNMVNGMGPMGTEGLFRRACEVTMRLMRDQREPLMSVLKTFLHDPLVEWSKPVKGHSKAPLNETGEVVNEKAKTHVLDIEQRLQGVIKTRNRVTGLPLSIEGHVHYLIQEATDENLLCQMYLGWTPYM

[16] = target: Dual specificity testis-specific protein kinase 1 (Homo sapiens, UniProt Q15569)
[17] = target: Serine/threonine-protein kinase PAK 6 (Homo sapiens, UniProt Q9NQU5)
Note: in the data inactive means no Kd found up to 30 µM.

Chain of Uncharacterized aarF domain-containing protein kinase 5 (Q3MIX3 whole entry, the tested form may be a part): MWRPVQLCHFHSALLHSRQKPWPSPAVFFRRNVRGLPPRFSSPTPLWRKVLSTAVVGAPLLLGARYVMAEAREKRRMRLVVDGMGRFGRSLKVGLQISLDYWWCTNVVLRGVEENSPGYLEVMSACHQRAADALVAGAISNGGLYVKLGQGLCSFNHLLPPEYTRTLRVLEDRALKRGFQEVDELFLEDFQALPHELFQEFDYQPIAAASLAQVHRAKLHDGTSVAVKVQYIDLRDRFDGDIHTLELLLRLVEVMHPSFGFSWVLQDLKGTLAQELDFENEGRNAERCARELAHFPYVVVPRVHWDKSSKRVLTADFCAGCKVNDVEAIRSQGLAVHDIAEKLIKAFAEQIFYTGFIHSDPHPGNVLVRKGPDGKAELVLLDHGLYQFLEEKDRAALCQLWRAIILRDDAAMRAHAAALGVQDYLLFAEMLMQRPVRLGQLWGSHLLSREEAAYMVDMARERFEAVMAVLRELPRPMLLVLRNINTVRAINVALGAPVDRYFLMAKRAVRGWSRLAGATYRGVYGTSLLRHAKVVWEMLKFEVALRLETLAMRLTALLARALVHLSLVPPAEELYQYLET
Chain of Membrane-associated progesterone receptor component 1 (O00264 whole entry): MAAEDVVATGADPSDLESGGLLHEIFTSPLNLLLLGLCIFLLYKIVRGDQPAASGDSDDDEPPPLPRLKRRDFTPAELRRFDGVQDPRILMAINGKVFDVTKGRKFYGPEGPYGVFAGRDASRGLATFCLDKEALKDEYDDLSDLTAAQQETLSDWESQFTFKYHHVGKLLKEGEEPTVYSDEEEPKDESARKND

| Kd [1] | Kd [2] | Kd [3] | Kd [4] | Kd [5] | Kd [6] | Kd [7] | Kd [8] | Kd [9] | Kd [10] | Kd [11] | Kd [12] | Kd [13] | Kd [14] | Kd [15] | Kd [16] | Kd [17] | SMILES |
| --- | --- | --- | --- | --- | --- | --- | --- | --- | --- | --- | --- | --- | --- | --- | --- | --- | --- |
| > 30 µM (inactive) | > 30 µM (inactive) | 0.204 µM | > 30 µM (inactive) | 0.041 µM | > 30 µM (inactive) | > 30 µM (inactive) | > 30 µM (inactive) | > 30 µM (inactive) | > 30 µM (inactive) | > 30 µM (inactive) | > 30 µM (inactive) | > 30 µM (inactive) | > 30 µM (inactive) | > 30 µM (inactive) | – | – | COC(=O)N[C@@H](C)CNc1nccc(-c2cn(C(C)C)nc2-c2cc(Cl)cc(NS(C)(=O)=O)c2F)n1 [ENCORAFENIB] |
| > 30 µM (inactive) | > 30 µM (inactive) | > 30 µM (inactive) | – | > 30 µM (inactive) | > 30 µM (inactive) | – | > 30 µM (inactive) | > 30 µM (inactive) | > 30 µM (inactive) | – | > 30 µM (inactive) | > 30 µM (inactive) | > 30 µM (inactive) | > 30 µM (inactive) | > 30 µM (inactive) | > 30 µM (inactive) | OCCn1cc(-c2cnc3nnn(Cc4ccc5ncccc5c4)c3n2)cn1 [PF-04217903] |
| > 30 µM (inactive) | > 30 µM (inactive) | > 30 µM (inactive) | – | – | > 30 µM (inactive) | > 30 µM (inactive) | > 30 µM (inactive) | > 30 µM (inactive) | > 30 µM (inactive) | > 30 µM (inactive) | > 30 µM (inactive) | > 30 µM (inactive) | > 30 µM (inactive) | > 30 µM (inactive) | > 30 µM (inactive) | > 30 µM (inactive) | C[C@@H]1CN(Cc2ccc(F)cc2)[C@@H](C)CN1C(=O)c1cc2c(C(=O)C(=O)N(C)C)cn(C)c2cc1Cl [TALMAPIMOD] |
